The record followed here is US5321029A, “Xanthines” (Beecham-Wuelfing GmbH & Co.K.G., priority 1988, dated 1994).

The Ki is the equilibrium dissociation constant of an inhibitor or competing ligand from its target. High values mean weaker binding, low ones tighter binding.

Molecules are shown by their SMILES.

Assay [1] addresses c-AMP phosphodiesterase (erythrocytes). The assay can be described thus: Inhibition of cyclic AMP phosphodiesterase (erythrocytes). The assay is classed as biochemical. The conditions noted are these: phosphodiesterase extracted from erythrocytes, phosphate buffer pH 7.4, radiochemical procedure. The method, then: The procedure used was that described by Arch, J. R. S. and Newsholme, E. A. in Biochem. J. 158, 603, (1976):
Erythrocytes were obtained from Na-citrate (16 mM; 0.1 ml/ml blood) anticoagulated blood by repeated centrifugation with removal of the buff coat and washing with an isotonic buffer (composition in mM: NaCl […], KCl 4, CACl2.2 H2 O 1.8, Na2 HPO4.12 H2 O 0.8, NaH2 PO4 0.2, MgSO4.7 H2 O 0.7, Hepes 3.4; pH 7.4).
The phosphodiesterase was extracted by mixing the erythrocytes with 4 volumes of 7 mM phosphate buffer, pH 7.4, followed by sonification (3×10 sec; 100 W) and then centrifuging for 30 min at 4200 x g.
All supernatants were diluted in the extraction medium and assayed for phosphodiesterase activity within 6 hours of preparation, using the radiochemical procedure described in the above mentioned reference.

Assay [2] deals with hippocampal CA1 field neuronal damage. The assay can be described thus: Delayed neuronal death in gerbils after transient forebrain ischaemia. The assay is classed as in vivo, gerbil. The conditions noted are these: 5.0 mg/kg i.p.; conclusion in words. The procedure:
Ischaemia was produced in adult male gerbils by occlusion of both common carotid arteries for 3 minutes under halothane/nitrous oxide anaesthesia. During surgery the animals were placed upon a warming blanket. The ischaemia led to neuronal degeneration and to disturbed brain function.
Brains were removed 2 weeks later and 12 μm thick coronal slices were examined light microscopically for neuronal degeneration.
Three groups of animals were used:
2. solvent-treated ligated controls
3. compound-treated ligated animals
The compound was administered 1 hour before the ligation period.
Means±SEM (n) of histopathological score [HPS] which reflects the degree of neuronal damage in the hippocampal CA1 field: […]

Compound `CC(O)Cn1cnc2c1c(=O)n(CC1CCC1)c(=O)n2CC1CCC1` (stereo not drawn) [Example 12, 1,3-Di-cyclobutylmethyl-7-(2-hydroxypropyl)-xanthine] yielded a Ki in assay [1] of 13500 nM.

In assay [1], `O=c1c2[nH]cnc2n(C2CCCCC2)c(=O)n1C1CCCCC1` [Example 10, 1,3-Di-cyclohexyl xanthine] came in with a Ki of 800 nM.

Regarding `O=c1c2[nH]cnc2n(CC2CCCCC2)c(=O)n1CC1CC1` [Example 22, 1-(Cyclopropylmethyl)-3-(cyclohexylmethyl)xanthine], in assay [1], the Ki is 23000 nM.

In assay [1], `CC(=O)Cn1cnc2c1c(=O)n(C1CCCCC1)c(=O)n2C1CCCCC1` [Example 11, 1,3-Di-cyclohexyl-7-(2-oxopropyl)-xanthine] displayed an inhibitory constant (Ki) of 2400 nM.

Regarding `CC(O)Cn1cnc2c1c(=O)n(CC1CCCC1)c(=O)n2CC1CCCC1` (stereo not drawn) [Example 9, 1,3-Di-cyclopentylmethyl-7-(2-hydroxypropyl)-xanthine], the Ki in assay [1] was 26600 nM.

In the case of `CC(=O)Cn1cnc2c1c(=O)n(CC1CC1)c(=O)n2CC1CCCCC1` [Example 19, 1-(Cyclopropylmethyl)-3-(cyclohexylmethyl)-7-(2-oxopropyl)xanthine], in assay [1], the Ki came to 2300 nM.

`O=c1c2[nH]cnc2n(C2CCCC2)c(=O)n1CC1CC1` [Example 18, 1-(Cyclopropylmethyl)-3-cyclopentylxanthine] returned an inhibition constant (Ki) in assay [1] of 8400 nM.

As for `CCCn1cnc2c1c(=O)n(CC1CC1)c(=O)n2CC1CC1` [Example 14, 1,3-Di-cyclopropylmethyl-7-n-propyl xanthine], the affinity in assay [1], expressed as Ki, was 5270 nM.

For the compound `CC(=O)Cn1cnc2c1c(=O)n(CC1CCCCC1)c(=O)n2CC1CCCCC1` [Example 8, 1,3-Di-cyclohexylmethyl-7-(2-oxopropyl)-xanthine], the Ki in assay [1] was determined as 2300 nM.

`CC(=O)Cn1cnc2c1c(=O)n(CC1CC1)c(=O)n2CC1CC1` [Example 5, 1,3-Di-cyclopropylmethyl-7-(2-oxopropyl)-xanthine] returned a Ki in assay [1] of 1400 nM.

For `O=c1c2c(ncn2CC2CC2)n(CC2CC2)c(=O)n1CC1CC1` [Example 16, 1,3,7-Tri-cyclopropylmethyl-xanthine], the Ki in assay [1] worked out at 2300 nM.

As for `CC(=O)Cn1cnc2c1c(=O)n(CC1CCCC1)c(=O)n2CC1CCCC1` [Example 7, 1,3-Di-cyclopentylmethyl-7-(2-oxopropyl)-xanthine], in assay [1], the affinity, expressed as Ki, was 1300 nM.

`CCCn1cnc2c1c(=O)n(CC1CCC1)c(=O)n2CC1CCC1` [Example 15, 1,3-Di-cyclobutylmethyl-7-n-propyl xanthine] yielded a Ki in assay [1] of 2400 nM.

For `O=c1c2[nH]cnc2n(CC2CC2)c(=O)n1CC1CC1` [Example 1, 1,3-Di-cyclopropylmethyl xanthine], the Ki in assay [1] was found to be 5700 nM. In addition, the “Prevention of ischaemia induced neuronal degeneration” value in assay [2] is “significantly prevented ischaemia induced neuronal degeneration”.

`CC(=O)Cn1cnc2c1c(=O)n(CC1CC1)c(=O)n2C1CCCC1` [Example 20, 1-(Cyclopropylmethyl)-3-cyclopentyl-7-(2-oxopropyl)-xanthine] came in with a Ki in assay [1] of 2000 nM.

Compound `O=c1c2[nH]cnc2n(CC2CCC2)c(=O)n1CC1CCC1` [Example 2, 1,3-Di-cyclobutylmethyl xanthine] registered a Ki in assay [1] of 2200 nM.

The compound `O=c1c2[nH]cnc2n(CC2CCCC2)c(=O)n1CC1CCCC1` [Example 3, 1,3-Di-cyclopentylmethyl xanthine] returned an inhibitory constant (Ki) in assay [1] of 3700 nM.

Regarding `O=c1c2[nH]cnc2n(CC2CCCCC2)c(=O)n1CC1CCCCC1` [Example 4, 1,3-Di-cyclohexylmethyl xanthine], in assay [1], the affinity, expressed as Ki, was 1700 nM. Against the preceding compound, the Ki is about 2.2-fold lower.

`O=c1c2[nH]cnc2n(C2CCC2)c(=O)n1C1CCC1` [Example 13, 1,3-Di-cyclobutyl-xanthine] yielded a Ki in assay [1] of 1700 nM.

In the case of `CC(=O)Cn1cnc2c1c(=O)n(CC1CCC1)c(=O)n2CC1CCC1` [Example 6, 1,3-Di-cyclobutylmethyl-7-(2-oxopropyl)-xanthine], the affinity in assay [1], expressed as Ki, was 150 nM.
